Patent US9018438B2, “Screening method for anticancer drugs” (Kyoto University, priority 2010, dated 2015)
Where a name gives a salt, the structure may show the parent alone. Read-outs that look alike come from different tables or passages of the source.

Tested on: Reck gene promoter
Test: SEAP assay in YM3 cells (Reck gene promoter-reporter system)
Type: cell-based, mouse
Method: A 4.1-kb upstream region of a mouse Reck gene (Gene ID: 53614, Chromosome 4—NC—000070.5 43884251-43888453) was inserted into a pSEAP2-Basic vector (Clontech) to give a pSEAP-RP4.1 plasmid. […] Biochem Biophys Res Commun 1999; 264: 668-675.). […] TF323-C3 cells can be distributed from one of the inventors Makoto Noda.
YM3 cells were seeded onto 96-well plates at 1×10^4 cells in 100 μl per well and incubation was performed for 5 hours to allow the cells to settle. A compound solution (500 μM, 1 μl) was added to the medium. The employed test compounds were those in the chemical library Prestwick Chemical Library (Prestwick Chemical, Illkirch, France), which is composed of 880 structurally diverse known bioactive compounds, dissolved in nano-pure grade dimethyl sulfoxide (DMSO; Wako). […] A vehicle (DMSO, 1 μl) alone as a negative control and hypothemycin (HPM, 1 mg/ml) as a positive control were added to two wells per plate. Each sample was tested on two different plates (duplicate samples).
After incubation for 48 hours, a portion (10 μl) of the culture supernatant was sampled, incubated at 65° C. (heat treatment) for 30 minutes, and then subjected to the SEAP assay using Great EscAPe™ SEAP Chemiluminescence Detection Kit (Takara Bio). The remaining medium and the cells were subjected to the cell-counting assay using SF reagent. That is, SF reagent (Nacalai) (10 μl per well) was added to the medium, the plates were incubated for 3 hours in a CO2 incubator, and the absorbance at 450 nm (A450) was measured to obtain relative cell numbers. For the SEAP activity data, “SEAP measured value/A450 value” was defined as “SEAP activity per cell”, and the value obtained by dividing “SEAP activity per cell” of each compound by “SEAP activity per cell” of the negative control was defined as “relative SEAP activity”. The mean “relative SEAP activity” of the duplicate samples and the standard error thereof were determined. For the cell number data, the value obtained by dividing the SF measured value of each compound by the SF measured value of the negative control was defined as “relative cell number”, and the mean value of the duplicate samples and the standard error thereof were determined. Samples with a large standard error were tested again. In the experiment, duplicate samples were prepared each in a regular liquid medium and in a liquid medium containing Dox (2 μg/ml), and four mean values (the relative cell number and the relative SEAP activity in the Ras-ON state and the relative cell number and the relative SEAP activity in the Ras-OFF state) were obtained (see FIG. 3).

[1] = in the presence of Dox (HRAS12V-off)
[2] = relative SEAP activity at optimal conc., YM3 cells, regular medium (Ras-ON)

## CCc1nc(N)nc(N)c1-c1ccc(Cl)cc1 [Pyrimethamine]
[1]
  Activity in Dox: ± (between 1.9 and 1.5-fold)
[2]
  Induction (fold): 2.33 fold

## COc1cc([C@@H]2c3cc4c(cc3[C@@H](O[C@@H]3O[C@@H]5CO[C@@H](C)O[C@H]5[C@H](O)[C@H]3O)[C@H]3COC(=O)[C@H]23)OCO4)cc(OC)c1O [Etoposide]
[1]
  Activity in Dox: + (more than 1.9-fold)
[2]
  Induction (fold): 1.99 fold

## CC1=CC(=O)c2ccccc2C1=O [Menadione]
[1]
  Activity in Dox: + (more than 1.9-fold)
[2]
  Induction (fold): 3.21 fold

## CN(C)CCCN1c2ccccc2Sc2ccc(C(F)(F)F)cc21 [Triflupromazine hydrochloride]
  Activity in Dox: − (key: +: more than 1.9-fold; ±: between 1.9 and 1.5-fold; −: less than 1.5-fold)

## COc1cc(O)c2c(c1)[C@H]1O[C@@H]1C[C@H](O)[C@H](O)C(=O)/C=C\C[C@H](C)OC2=O [HPM, hypothemycin]
1 μg/ml
  SEAP up-regulation in YM3 cells: up-regulated
Positive control, typical
  up-regulation of SEAP activity: about twofold

## CC[C@H]1CN2CCc3cc(OC)c(OC)cc3[C@@H]2C[C@@H]1C[C@H]1NCCc2cc(O)c(OC)cc21.Cl.Cl.O.O.O.O.O.O.O [Cephaeline dihydrochloride heptahydrate]
  Optimal conc.: 5.00 µM
[1]
  Activity in Dox: + (more than 1.9-fold)
[2]
  Induction (fold): 5.61 fold

## Thimerosal
  Activity in Dox: + (key: +: more than 1.9-fold; ±: between 1.9 and 1.5-fold; −: less than 1.5-fold)
  Induction (fold): 9.33 fold
  Optimal conc.: 5.00 µM

## CC(=O)O[C@H]1C(=O)[C@@]2(C)[C@H]([C@H](OC(=O)c3ccccc3)[C@]3(O)C[C@H](OC(=O)[C@H](O)[C@@H](NC(=O)c4ccccc4)c4ccccc4)C(C)=C1C3(C)C)[C@]1(OC(C)=O)CO[C@@H]1C[C@@H]2O [Paclitaxel]
[1]
  Activity in Dox: ± (between 1.9 and 1.5-fold)
[2]
  Induction (fold): 3.32 fold

## CN(C)c1ccc(O)c2c1C[C@H]1C[C@H]3[C@H](N(C)C)C(O)=C(C(N)=O)C(=O)[C@@]3(O)C(O)=C1C2=O [Minocycline hydrochloride]
[1]
  Activity in Dox: − (less than 1.5-fold)
[2]
  Induction (fold): 2.54 fold

## CCN(CC)CCNc1ccc(CO)c2sc3ccccc3c(=O)c12 [Hycanthone]
[1]
  Activity in Dox: + (more than 1.9-fold)
[2]
  Induction (fold): 2.02 fold

## Clc1cc(Cl)c(OCC#CI)cc1Cl [Haloprogin]
[1]
  Activity in Dox: + (more than 1.9-fold)
[2]
  Induction (fold): 3.48 fold

## COc1cc([C@@H]2c3cc4c(cc3[C@H](O)[C@H]3COC(=O)[C@H]23)OCO4)cc(OC)c1OC [Podophyllotoxin]
[1]
  Activity in Dox: ± (between 1.9 and 1.5-fold)
[2]
  Induction (fold): 2.48 fold

## CC[C@H]1CN2CCc3cc(OC)c(OC)cc3[C@@H]2C[C@@H]1C[C@H]1NCCc2cc(OC)c(OC)cc21 [Emetine dihydrochloride]
[1]
  Activity in Dox: − (less than 1.5-fold)
[2]
  Induction (fold): 3.79 fold

## O=C(c1ccc(OCCN2CCCCC2)cc1)c1c(-c2ccc(O)cc2)sc2cc(O)ccc12 [Raloxifene hydrochloride]
[1]
  Activity in Dox: − (less than 1.5-fold)
[2]
  Induction (fold): 2.17 fold

## Nc1nc(N)c2nc(-c3ccccc3)c(N)nc2n1 [Triamterene]
[1]
  Activity in Dox: − (less than 1.5-fold)
[2]
  Induction (fold): 2.25 fold

## C[C@@H]1C[C@@H]([C@H](O)CC2CC(=O)NC(=O)C2)C(=O)[C@@H](C)C1 [Cycloheximide]
[1]
  Activity in Dox: ± (between 1.9 and 1.5-fold)
[2]
  Induction (fold): 2.29 fold

## CN(C)[C@@H]1C(O)=C(C(N)=O)C(=O)[C@@]2(O)C(O)=C3C(=O)c4c(O)ccc(Cl)c4[C@@H](O)[C@H]3C[C@@H]12 [Demeclocycline hydrochloride]
[1]
  Activity in Dox: − (less than 1.5-fold)
[2]
  Induction (fold): 2.57 fold

## C[C@H]1c2cccc(O)c2C(=O)C2=C(O)[C@]3(O)C(=O)C(C(N)=O)=C(O)[C@@H](N(C)C)[C@@H]3[C@@H](O)[C@@H]21 [Doxycycline hydrochloride]
[1]
  Activity in Dox: − (less than 1.5-fold)
[2]
  Induction (fold): 1.96 fold

## COc1cc(/C=C/C(=O)N2CCC=CC2=O)cc(OC)c1OC [Piperlongumine]
  Optimal conc.: 5.00 µM
[1]
  Activity in Dox: − (less than 1.5-fold)
[2]
  Induction (fold): 2.06 fold

## COc1cccc2c1C(=O)c1c(O)c3c(c(O)c1C2=O)C[C@@](O)(C(C)=O)C[C@@H]3O[C@H]1C[C@H](N)[C@H](O)[C@H](C)O1 [Daunorubicin hydrochloride]
[1]
  Activity in Dox: + (more than 1.9-fold)
[2]
  Induction (fold): 6.22 fold

## C1CCC(C(CC2CCCCN2)C2CCCCC2)CC1 (stereo not drawn) [Perhexiline maleate]
[1]
  Activity in Dox: + (more than 1.9-fold)
[2]
  Induction (fold): 2.28 fold

## CCCSc1ccc2nc(NC(=O)OC)[nH]c2c1 [Albendazole]
  Activity in Dox: ± (key: +: more than 1.9-fold; ±: between 1.9 and 1.5-fold; −: less than 1.5-fold)
  Induction (fold): 2.89 fold

## CCN(CC)C(=S)SSC(=S)N(CC)CC [Disulfiram]
[1]
  Activity in Dox: + (more than 1.9-fold)
[2]
  Induction (fold): 18.0 fold

## CCOC(=O)NC1=C(N2CC2)C(=O)C(NC(=O)OCC)=C(N2CC2)C1=O [Diaziquone]
[1]
  Activity in Dox: ± (between 1.9 and 1.5-fold)
[2]
  Induction (fold): 3.54 fold

## CN(Cc1cnc2nc(N)nc(N)c2n1)c1ccc(C(=O)N[C@@H](CCC(=O)O)C(=O)O)cc1 [Methotrexate]
[1]
  Activity in Dox: ± (between 1.9 and 1.5-fold)
[2]
  Induction (fold): 3.42 fold

## CC[C@@]1(O)C(=O)OCc2c1cc1n(c2=O)Cc2cc3ccccc3nc2-1 [Camptothecine (S, +)]
  Optimal conc.: 5.00 µM
[1]
  Activity in Dox: + (more than 1.9-fold)
[2]
  Induction (fold): 7.71 fold

## O=C1c2c(O)ccc(O)c2C(=O)c2c(NCCNCCO)ccc(NCCNCCO)c21 [Mitoxantrone dihydrochloride]
[1]
  Activity in Dox: + (more than 1.9-fold)
[2]
  Induction (fold): 3.60 fold
